Data set [1] concerns HepG2. The data set can be described thus: MTT cytotoxicity assay, HepG2. Type of data set: cell-based, human. The settings on record: for Selectivity index (SI): folds more toxic respecting HepG2 than normal VERO cells: CC50 VERO vs EC50 HepG2; for EC50: Homo sapiens, HepG2, read-out: EC50 HepG2. (In general: Formazan colour is commonly taken as a measure of viable cells.)
Data set [2] relates to MCF-7. In words: MTT cytotoxicity assay, MCF-7. Type of data set: cell-based, human. The settings on record: for Selectivity index (SI): folds toxic in MCF-7 than in normal VERO cells: CC50 VERO vs EC50 MCF-7; for EC50: Homo sapiens, MCF7, read-out: EC50 MCF-7.
Data set [3] has as its system HCT116. In words: MTT cytotoxicity assay, HCT116. Type of data set: cell-based, human. The settings on record: for Selectivity index (SI): folds lethalness in HCT-116 than in VERO cells: CC50 VERO vs EC50 HCT-116; for EC50: Homo sapiens, HCT-116, read-out: EC50 HCT116.
Data set [4] has as its system A549. The data set can be described thus: MTT cytotoxicity assay, A549. The settings on record: for Selectivity index (SI): folds toxicity in A549 than in VERO cells: CC50 VERO vs EC50 A549; for EC50: Homo sapiens, A549, read-out: EC50 A549. Type of data set: cell-based, human.
For data set [5], the target named is VEGFR-2 (Homo sapiens, UniProt P35968). In words: In vitro VEGFR-2 kinase inhibitory assay. Type of data set: biochemical.
VEGFR-2, sequence (P35968 20-1356): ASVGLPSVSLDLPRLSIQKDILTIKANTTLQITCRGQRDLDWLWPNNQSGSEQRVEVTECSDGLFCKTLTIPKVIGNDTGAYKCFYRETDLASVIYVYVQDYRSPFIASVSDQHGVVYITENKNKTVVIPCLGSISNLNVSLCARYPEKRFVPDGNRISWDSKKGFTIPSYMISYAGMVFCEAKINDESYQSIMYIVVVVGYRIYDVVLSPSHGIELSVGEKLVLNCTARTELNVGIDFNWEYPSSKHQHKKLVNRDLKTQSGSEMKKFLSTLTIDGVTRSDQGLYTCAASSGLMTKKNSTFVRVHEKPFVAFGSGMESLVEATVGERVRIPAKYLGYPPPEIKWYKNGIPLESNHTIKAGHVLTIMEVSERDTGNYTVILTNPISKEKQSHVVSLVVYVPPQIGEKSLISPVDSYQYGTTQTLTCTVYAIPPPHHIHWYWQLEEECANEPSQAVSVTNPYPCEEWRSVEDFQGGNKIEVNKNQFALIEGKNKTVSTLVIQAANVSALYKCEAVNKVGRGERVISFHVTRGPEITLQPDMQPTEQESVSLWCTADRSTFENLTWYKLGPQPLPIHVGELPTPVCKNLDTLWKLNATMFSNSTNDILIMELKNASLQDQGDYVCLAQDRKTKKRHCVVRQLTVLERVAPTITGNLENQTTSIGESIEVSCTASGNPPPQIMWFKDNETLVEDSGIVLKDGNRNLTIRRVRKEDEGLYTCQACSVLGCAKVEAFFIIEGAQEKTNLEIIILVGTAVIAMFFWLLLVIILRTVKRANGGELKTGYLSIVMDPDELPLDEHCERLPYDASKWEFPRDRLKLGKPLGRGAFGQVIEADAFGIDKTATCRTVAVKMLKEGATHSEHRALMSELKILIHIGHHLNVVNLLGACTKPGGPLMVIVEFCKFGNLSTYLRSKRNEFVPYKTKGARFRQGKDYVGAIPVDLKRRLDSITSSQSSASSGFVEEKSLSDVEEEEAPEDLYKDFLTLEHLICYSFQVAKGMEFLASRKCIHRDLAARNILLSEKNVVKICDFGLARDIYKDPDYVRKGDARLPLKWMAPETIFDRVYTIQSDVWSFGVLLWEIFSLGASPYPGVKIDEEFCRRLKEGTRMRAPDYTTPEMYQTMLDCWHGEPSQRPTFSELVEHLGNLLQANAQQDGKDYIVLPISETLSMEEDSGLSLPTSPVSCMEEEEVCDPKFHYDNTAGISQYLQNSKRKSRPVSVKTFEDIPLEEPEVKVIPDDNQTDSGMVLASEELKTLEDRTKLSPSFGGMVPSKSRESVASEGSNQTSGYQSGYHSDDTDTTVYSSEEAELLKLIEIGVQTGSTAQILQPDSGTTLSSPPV
For data set [6], the target named is EGFR^T790M (Homo sapiens, UniProt P00533, T790M). In words: In vitro EGFR^T790M kinase inhibitory assay. Type of data set: biochemical.
EGFR^T790M, sequence (P00533 25-1210 T790M): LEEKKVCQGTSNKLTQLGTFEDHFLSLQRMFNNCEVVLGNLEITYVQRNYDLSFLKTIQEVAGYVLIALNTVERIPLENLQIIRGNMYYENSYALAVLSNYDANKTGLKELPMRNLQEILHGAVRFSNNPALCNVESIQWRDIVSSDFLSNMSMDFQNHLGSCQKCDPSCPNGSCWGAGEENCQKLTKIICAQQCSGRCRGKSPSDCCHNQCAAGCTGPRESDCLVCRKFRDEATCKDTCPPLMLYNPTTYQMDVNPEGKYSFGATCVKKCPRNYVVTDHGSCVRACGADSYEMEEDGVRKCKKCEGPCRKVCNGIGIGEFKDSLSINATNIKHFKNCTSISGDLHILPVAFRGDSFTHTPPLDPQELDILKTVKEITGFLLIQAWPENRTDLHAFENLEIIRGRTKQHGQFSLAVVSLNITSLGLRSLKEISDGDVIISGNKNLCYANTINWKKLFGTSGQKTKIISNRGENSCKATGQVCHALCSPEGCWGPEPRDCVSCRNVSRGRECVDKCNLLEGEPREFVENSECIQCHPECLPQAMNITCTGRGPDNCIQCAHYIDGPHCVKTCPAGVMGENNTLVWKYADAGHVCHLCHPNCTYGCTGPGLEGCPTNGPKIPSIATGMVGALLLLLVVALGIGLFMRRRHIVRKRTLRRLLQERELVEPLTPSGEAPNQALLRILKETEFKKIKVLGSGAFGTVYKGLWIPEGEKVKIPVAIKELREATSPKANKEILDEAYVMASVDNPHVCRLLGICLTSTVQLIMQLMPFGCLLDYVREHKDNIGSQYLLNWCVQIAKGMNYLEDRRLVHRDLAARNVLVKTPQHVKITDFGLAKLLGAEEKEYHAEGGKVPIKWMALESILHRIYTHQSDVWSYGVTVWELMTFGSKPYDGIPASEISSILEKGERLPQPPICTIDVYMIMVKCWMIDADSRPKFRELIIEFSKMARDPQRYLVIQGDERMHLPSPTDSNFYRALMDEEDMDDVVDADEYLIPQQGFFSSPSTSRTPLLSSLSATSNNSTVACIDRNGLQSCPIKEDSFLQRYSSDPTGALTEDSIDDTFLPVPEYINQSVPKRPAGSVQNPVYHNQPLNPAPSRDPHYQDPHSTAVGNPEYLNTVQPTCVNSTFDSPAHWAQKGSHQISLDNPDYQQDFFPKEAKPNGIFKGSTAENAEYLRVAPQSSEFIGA
Data set [7] concerns the target EGFR^WT (Homo sapiens, UniProt P00533). In words: In vitro EGFR^WT kinase inhibitory assay. Type of data set: biochemical.
The nature of data set [8]: Cytotoxicity against VERO normal cell lines. The settings on record: African green monkey, VERO normal cells.

Like-named read-outs stand apart in the source and are kept apart here.

EGFR^WT, sequence (P00533 25-1210): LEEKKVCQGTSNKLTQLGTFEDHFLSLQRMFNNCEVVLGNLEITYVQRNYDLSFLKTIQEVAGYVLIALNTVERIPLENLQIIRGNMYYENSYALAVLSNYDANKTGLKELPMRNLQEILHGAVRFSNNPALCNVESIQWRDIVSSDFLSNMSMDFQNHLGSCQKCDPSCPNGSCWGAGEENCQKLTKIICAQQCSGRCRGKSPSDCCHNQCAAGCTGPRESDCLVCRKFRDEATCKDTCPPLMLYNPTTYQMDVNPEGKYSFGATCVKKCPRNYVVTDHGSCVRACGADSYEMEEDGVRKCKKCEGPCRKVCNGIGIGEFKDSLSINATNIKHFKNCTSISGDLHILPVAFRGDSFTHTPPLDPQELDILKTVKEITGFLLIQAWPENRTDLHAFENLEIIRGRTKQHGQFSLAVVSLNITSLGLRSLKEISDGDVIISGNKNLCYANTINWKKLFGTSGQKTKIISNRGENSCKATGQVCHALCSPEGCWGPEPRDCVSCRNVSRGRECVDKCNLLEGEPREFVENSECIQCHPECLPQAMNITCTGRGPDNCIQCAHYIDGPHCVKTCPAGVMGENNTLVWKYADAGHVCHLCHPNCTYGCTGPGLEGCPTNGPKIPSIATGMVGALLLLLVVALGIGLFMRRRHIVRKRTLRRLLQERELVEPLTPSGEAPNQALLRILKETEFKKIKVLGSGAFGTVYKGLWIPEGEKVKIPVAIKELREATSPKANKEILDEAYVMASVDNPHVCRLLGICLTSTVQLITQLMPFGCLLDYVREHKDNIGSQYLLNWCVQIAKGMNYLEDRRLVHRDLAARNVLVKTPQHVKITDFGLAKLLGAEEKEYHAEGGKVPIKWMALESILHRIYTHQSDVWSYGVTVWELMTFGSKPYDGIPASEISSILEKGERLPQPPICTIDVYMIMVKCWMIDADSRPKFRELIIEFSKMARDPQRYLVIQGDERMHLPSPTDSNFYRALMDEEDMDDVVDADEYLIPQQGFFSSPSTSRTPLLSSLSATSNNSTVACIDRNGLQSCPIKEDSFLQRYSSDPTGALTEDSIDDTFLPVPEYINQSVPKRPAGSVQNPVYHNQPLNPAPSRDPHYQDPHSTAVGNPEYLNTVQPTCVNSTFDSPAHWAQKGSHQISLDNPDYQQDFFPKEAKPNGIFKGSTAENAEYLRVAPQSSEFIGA

What is called EC50 is the concentration needed to bring the measured effect to its halfway point. As usually defined, the IC50 is the concentration needed to halve the response being measured. As usually defined, the CC50 is the concentration giving 50% cytotoxicity. The low end stands for harm at low concentration, the high end for better tolerance by the cells. With `CCCn1c(=O)n(CC(=O)Nc2ccc(-c3nnc(S)o3)cc2)c(=O)c2cc(I)ccc21` [Compound 8b, 2-[6-Iodo-2,4-dioxo-1-propyl-1,4-dihydroquinazolin-3(2H)-yl]-N-[4-(5-mercapto-1,3,4-oxadiazol-2-yl)phenyl]acetamide], the “Selectivity index (SI): folds more toxic respecting HepG2 than normal VERO cells” value in data set [1] came out at 6.77 folds. The EC50 in data set [1] turned out to be 7.5 ± 0.7 µM; in data set [2], 7.45 ± 0.7 µM; in data set [3] it was 6.75 ± 0.7 µM; in data set [4], 6.7 ± 0.5 µM. In addition, the “Selectivity index (SI): folds toxic in MCF-7 than in normal VERO cells” value in data set [2] was determined as 6.81 folds. Also, in data set [3], the “Selectivity index (SI): folds lethalness in HCT-116 than in VERO cells” value (from here on “Selectivity index (SI): folds lethalness”) stood at 7.52 folds. In addition, the “Selectivity index (SI): folds toxicity in A549 than in VERO cells” value (“Selectivity index (SI): folds toxicity” for short) in data set [4] was 7.57 folds. The IC50 worked out at 1.38 ± 0.1 µM in data set [5], 0.45 ± 0.35 µM in data set [6] and 0.38 ± 0.03 µM in data set [7]. Besides, half-maximal cytotoxicity in data set [8] (CC50) was put at 50.75 ± 0.5 µM.
Turning to `CCn1c(=O)n(CC(=O)Nc2ccc(C(=O)NN=Cc3ccc(OC)cc3)cc2)c(=O)c2cc(I)ccc21` [Compound 9c, 2-[1-Ethyl-6-iodo-2,4-dioxo-1,4-dihydroquinazolin-3(2H)-yl]-N-{4-[2-(4-methoxybenzylidene)-hydrazine-1-carbonyl]phenyl}acetamide], in data set [1], the “Selectivity index (SI): folds more toxic respecting HepG2 than normal VERO cells” value was found to be 11.00 folds. For the same molecule, the concentration for a half-maximal effect (EC50) in data set [1] amounted to 5 ± 0.5 µM; in data set [2], 6 ± 0.5 µM; in data set [3] it was 5.17 ± 0.5 µM; in data set [4] it was 5.25 ± 0.5 µM. Besides, the “Selectivity index (SI): folds toxic in MCF-7 than in normal VERO cells” value in data set [2] was 9.17 folds. For the same molecule, in data set [3], the “Selectivity index (SI): folds lethalness” value turned out to be 10.64 folds. Also, the “Selectivity index (SI): folds toxicity” value in data set [4] was determined as 10.48 folds. For the same molecule, the half-inhibitory concentration (IC50) in data set [5] is 0.85 ± 0.1 µM; in data set [6], 0.22 ± 0.3 µM; in data set [7], 0.15 ± 0.03 µM. In data set [8], this molecule returned a CC50 of 55 ± 0.5 µM.
As for `CCOC(=O)c1ccc(NC(=O)Cn2c(=O)c3cc(I)ccc3n(CC)c2=O)cc1` [Compound 5b, Ethyl 4-{2-[1-ethyl-6-iodo-2,4-dioxo-1,4-dihydroquinazolin-3(2H)-yl]acetamido}benzoate], the concentration for a half-maximal effect (EC50) in data set [1] was 7.59 ± 0.7 µM; in data set [2], 7.4 ± 0.7 µM; in data set [3] it was 6.55 ± 0.7 µM; in data set [4] it was 6.78 ± 0.7 µM. Moreover, the IC50 was determined as 1.5 ± 0.1 µM in data set [5] and 0.8 ± 0.5 µM in data set [6].
As for `CCn1c(=O)n(CC(=O)Nc2ccc(C(=O)NN)cc2)c(=O)c2cc(I)ccc21` [Compound 7a, 2-(1-Ethyl-6-iodo-2,4-dioxo-1,4-dihydroquinazolin-3(2H)-yl)-N-(4-(hydrazinecarbonyl)phenyl)-acetamide], the EC50 stood at 16 ± 1.5 µM in data set [1], 15.5 ± 1.5 µM in data set [2], 13.2 ± 1.5 µM in data set [3] and 13.7 ± 1.5 µM in data set [4]. The IC50 worked out at 2.5 ± 0.25 µM in data set [5] and 1.5 ± 0.5 µM in data set [6].
Turning to `CCCn1c(=O)n(CC(=O)Nc2ccc(C(=O)OC)cc2)c(=O)c2cc(I)ccc21` [Compound 5c, Methyl 4-{2-[6-iodo-2,4-dioxo-1-propyl-1,4-dihydroquinazolin-3(2H)-yl]acetamido}benzoate], the EC50 in data set [1] was determined as 7.75 ± 0.7 µM; in data set [2], 7.96 ± 0.7 µM; in data set [3] it was 6.93 ± 0.7 µM; in data set [4], 6.73 ± 0.7 µM. The values for the IC50 in data set [5] and in data set [6] were 1.5 ± 0.5 µM and 0.92 ± 0.5 µM, respectively.
As for `CNC(=O)c1cc(Oc2ccc(NC(=O)Nc3ccc(Cl)c(C(F)(F)F)c3)cc2)ccn1` [Sorafenib, reference compound], the EC50 turned out to be 4 ± 0.33 µM in data set [1], 5.58 ± 0.55 µM in data set [3] and 4.04 ± 0.33 µM in data set [4].
For the molecule `CCn1c(=O)n(CC(=O)Nc2ccc(C(=O)NN=Cc3ccccc3)cc2)c(=O)c2cc(I)ccc21` [Compound 9a, N-[4-(2-benzylidenehydrazine-1-carbonyl)phenyl]-2-[1-ethyl-6-iodo-2,4-dioxo-1,4-dihydroquinazolin-3(2H)-yl]acetamide], the “Selectivity index (SI): folds more toxic respecting HepG2 than normal VERO cells” value in data set [1] amounted to 6.69 folds. The concentration giving a half-maximal response (EC50) in data set [1] is 6.8 ± 0.7 µM; in data set [2] it was 7.5 ± 0.7 µM; in data set [3], 6.29 ± 0.7 µM; in data set [4] it was 6.75 ± 0.7 µM. Also, the “Selectivity index (SI): folds toxic in MCF-7 than in normal VERO cells” value in data set [2] is given as 6.07 folds. The “Selectivity index (SI): folds lethalness” value in data set [3] is recorded as 7.23 folds. Further, the “Selectivity index (SI): folds toxicity” value in data set [4] worked out at 6.74 folds. Moreover, the IC50 in data set [5] was 1 ± 0.1 µM; in data set [6], 0.75 ± 0.5 µM; in data set [6] (IC50 EGFR^T790M), 1.5 µM. It took 45.5 ± 0.5 µM to reach half-maximal cytotoxicity in data set [8] (CC50).
For the molecule `CCCn1c(=O)n(CC(=O)Nc2ccc(C(=O)NN)cc2)c(=O)c2cc(I)ccc21` [Compound 7b, N-[4-(hydrazinecarbonyl)phenyl]-2-(6-iodo-2,4-dioxo-1-propyl-1,4-dihydroquinazolin-3(2H)-yl)acetamide], the EC50 was 15.5 ± 1.5 µM in data set [1], 13.9 ± 1.5 µM in data set [2], 15.9 ± 1.5 µM in data set [3] and 15.1 ± 1.5 µM in data set [4]. In addition, the results for the IC50 in data set [5] and in data set [6] were 2.25 ± 0.25 µM and 2.05 ± 0.5 µM, respectively.
Take `CCn1c(=O)n(CC(=O)Nc2ccc(-c3nnc(S)o3)cc2)c(=O)c2cc(I)ccc21` [Compound 8a, 2-[1-Ethyl-6-iodo-2,4-dioxo-1,4-dihydroquinazolin-3(2H)-yl]-N-[4-(5-mercapto-1,3,4-oxadiazol-2-yl)phenyl]acetamide]: the concentration giving a half-maximal response (EC50) in data set [1] was found to be 7.55 ± 0.9 µM; in data set [2] it was 8.25 ± 0.9 µM; in data set [3], 7.25 ± 0.9 µM; in data set [4], 10.1 ± 0.9 µM. For the same molecule, the IC50 came out at 1.5 ± 0.1 µM in data set [5] and 1 ± 0.5 µM in data set [6].
With `CCCn1c(=O)n(CC(=O)Nc2ccc(C(=O)NC)cc2)c(=O)c2cc(I)ccc21` [Compound 6b, 4-{2-[6-Iodo-2,4-dioxo-1-propyl-1,4-dihydroquinazolin-3(2H)-yl]acetamido}-N-methylbenzamide], the EC50 in data set [1] turned out to be 8.5 ± 0.8 µM; in data set [2], 8.15 ± 0.8 µM; in data set [3], 8.35 ± 0.8 µM; in data set [4] it was 6.7 ± 0.8 µM. Also, the IC50 in data set [5] turned out to be 1.65 ± 0.1 µM; in data set [6] it was 0.6 ± 0.35 µM.
Turning to `CCn1c(=O)n(CC(=O)Nc2ccc(C(=O)OC)cc2)c(=O)c2cc(I)ccc21` [Compound 5a, Methyl 4-{2-[1-ethyl-6-iodo-2,4-dioxo-1,4-dihydroquinazolin-3(2H)-yl]acetamido}benzoate], the EC50 in data set [1] was 12.5 ± 0.7 µM; in data set [2] it was 11.6 ± 0.7 µM; in data set [3], 11.4 ± 0.7 µM; in data set [4] it was 8.45 ± 0.7 µM. Moreover, the IC50 was 2 ± 0.25 µM in data set [5] and 0.86 ± 0.5 µM in data set [6].
Turning to `C#Cc1cccc(Nc2ncnc3cc(OCCOC)c(OCCOC)cc23)c1` [Erlotinib, reference compound], the EC50 in data set [1] was 7.73 ± 0.67 µM; in data set [2], 13.9 ± 1.3 µM; in data set [3] it was 8.2 ± 0.34 µM; in data set [4], 5.49 ± 0.45 µM.
With `CCNC(=O)c1ccc(NC(=O)Cn2c(=O)c3cc(I)ccc3n(CC)c2=O)cc1` [Compound 6a, 4-{2-[1-Ethyl-6-iodo-2,4-dioxo-1,4-dihydroquinazolin-3(2H)-yl]acetamido}-N-ethylbenzamide], the EC50 in data set [1] stood at 7.8 ± 0.8 µM; in data set [2] it was 8.5 ± 0.8 µM; in data set [3], 7.6 ± 0.8 µM; in data set [4] it was 7.95 ± 0.8 µM. In addition, the IC50 in data set [5] was determined as 1.4 ± 0.2 µM; in data set [6] it was 0.9 ± 0.5 µM.

The values above are taken from paper PMC10716637 (RSC Advances, 2023).
